The target of one test is T1, VEGFR2 (KDR) kinase (Homo sapiens, UniProt P35968).
T1 construct: purchased Life Technologies
Nature of the test: Z'-LYTE kinase assay, inhibitory activity for VEGFR2 kinase. It counts as biochemical. As to conditions: compound concentration of 100 nM, read-out: Degree of inhibition (%). The protocol:
(§1) Inhibitory activity of the exemplary compounds among the foregoing compounds with respect to AXL, CLK2, VEGFR2 (KDR), NUAK1 kinases were measured. Z'-LYTE™ Kinase Assay Kit-Tyr 6 Peptide (Cat. No. PV4122, available from Life Technologies) for AXL, Z'-LYTE™ Kinase Assay Kit-Ser/Thr peptide 6 (Cat. No. PV3179, available from Life Technologies) for CLK2, Z'-LYTE™ Kinase Assay Kit (Cat. No. PV3190, available from Life Technologies) for VEGFR, and Adapta™ Universal Kinase Assay Kit (Cat. No. PV5099, available from Life Technologies) for NUAK1(ARK5) were used. The experiments were carried out by Life Technologies corporation.

A further test concerns the target T2, AXL kinase (Homo sapiens, UniProt P30530).
T2 construct: purchased Life Technologies
T2 sequence (P30530 26-894): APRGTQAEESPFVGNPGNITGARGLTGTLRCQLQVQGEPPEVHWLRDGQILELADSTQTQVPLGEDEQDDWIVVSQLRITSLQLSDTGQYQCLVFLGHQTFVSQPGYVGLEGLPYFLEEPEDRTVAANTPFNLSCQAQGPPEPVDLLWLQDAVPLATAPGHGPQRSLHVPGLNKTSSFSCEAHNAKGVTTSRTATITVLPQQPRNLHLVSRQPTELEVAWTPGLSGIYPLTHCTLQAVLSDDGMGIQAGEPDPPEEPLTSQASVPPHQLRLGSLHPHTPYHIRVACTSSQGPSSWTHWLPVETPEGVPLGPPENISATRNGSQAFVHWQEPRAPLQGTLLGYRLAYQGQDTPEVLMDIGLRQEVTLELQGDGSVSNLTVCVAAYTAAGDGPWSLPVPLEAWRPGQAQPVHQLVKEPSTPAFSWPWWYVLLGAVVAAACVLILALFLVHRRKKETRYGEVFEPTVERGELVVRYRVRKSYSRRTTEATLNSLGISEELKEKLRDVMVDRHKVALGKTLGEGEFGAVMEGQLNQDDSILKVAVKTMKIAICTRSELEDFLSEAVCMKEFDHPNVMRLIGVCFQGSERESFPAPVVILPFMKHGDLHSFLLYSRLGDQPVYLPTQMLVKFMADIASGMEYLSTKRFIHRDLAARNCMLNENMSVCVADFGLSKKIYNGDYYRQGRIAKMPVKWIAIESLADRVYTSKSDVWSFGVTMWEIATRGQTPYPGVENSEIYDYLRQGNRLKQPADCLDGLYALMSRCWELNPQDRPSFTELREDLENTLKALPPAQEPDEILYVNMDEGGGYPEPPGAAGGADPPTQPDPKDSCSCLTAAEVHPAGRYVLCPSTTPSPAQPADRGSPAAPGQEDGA
Nature of the test: Z'-LYTE kinase assay, inhibitory activity for AXL kinase. Format: biochemical. The settings on record: compound concentration of 100 nM, read-out: Degree of inhibition (%). How it is done: as §1

In the next test the target is T3, NUAK1 (ARK5) kinase (Homo sapiens, UniProt O60285).
T3 construct: purchased Life Technologies
T3 sequence (O60285 1-661): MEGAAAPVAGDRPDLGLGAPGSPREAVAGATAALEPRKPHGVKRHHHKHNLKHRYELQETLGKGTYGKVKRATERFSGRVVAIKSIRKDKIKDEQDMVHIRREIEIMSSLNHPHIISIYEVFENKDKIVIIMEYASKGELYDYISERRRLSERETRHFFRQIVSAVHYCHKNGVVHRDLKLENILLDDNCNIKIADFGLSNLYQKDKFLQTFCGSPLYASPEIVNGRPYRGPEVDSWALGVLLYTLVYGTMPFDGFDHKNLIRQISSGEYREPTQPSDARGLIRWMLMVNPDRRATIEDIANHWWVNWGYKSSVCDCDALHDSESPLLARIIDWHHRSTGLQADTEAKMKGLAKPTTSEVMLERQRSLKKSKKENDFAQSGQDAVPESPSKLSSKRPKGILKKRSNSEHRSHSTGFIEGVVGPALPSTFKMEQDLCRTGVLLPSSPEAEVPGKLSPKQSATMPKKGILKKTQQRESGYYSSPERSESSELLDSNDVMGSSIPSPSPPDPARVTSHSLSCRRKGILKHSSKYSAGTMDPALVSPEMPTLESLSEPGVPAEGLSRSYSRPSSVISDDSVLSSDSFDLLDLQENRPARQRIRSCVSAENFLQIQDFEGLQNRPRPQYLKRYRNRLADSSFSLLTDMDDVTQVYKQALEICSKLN
Nature of the test: Adapta Universal kinase assay, inhibitory activity for NUAK1 kinase. Format: biochemical. As to conditions: compound concentration of 100 nM, read-out: Degree of inhibition (%). How it is done:
as §1

In the next test the target is T4, CLK2 kinase (Homo sapiens, UniProt P49760).
T4 construct: purchased Life Technologies
Nature of the test: Z'-LYTE kinase assay, inhibitory activity for CLK2 kinase. Format: biochemical. As to conditions: compound concentration of 100 nM, read-out: Degree of inhibition (%). The protocol: as §1

A further test relates to RS4-11 cell line. Nature of the test: Inhibitory activity in cell growth, MTS test, RS4-11. As to conditions: Homo sapiens, 72 h, incubation three days. Format: cell-based. How it is done: RS4-11 cell line was incubated in an RPMI1640 culture medium (10% fetal bovine serum (FBS)) at a temperature of 37° C. The incubated cell line was prepared in an amount of 2.0×10^4 cells/100 μL, and then plated on 96-well plates. The RPMI1640 medium was serially diluted with the test compounds at a concentration in a range of 10 μM to 0.1 nM at a ratio of 1/10. Subsequently, incubation was performed thereon for three days. An MTS test was performed to measure cell viability, and the 50% growth inhibition (GI50) value of the cell line was calculated using GraphPad Prism software.

The subject of another test is MV4-11 cell line. Nature of the test: Inhibitory activity in cell growth, MTS test, MV4-11. It counts as cell-based. As to conditions: Homo sapiens, 72 h, incubation three days. How it is done:
MV4-11 cell line was incubated in an IMDM medium (10% FBS) at a temperature of 37° C. The incubated cell line was prepared in an amount of 2×10^4 cells/100 μL, and then plated on 96-well plates. The IMDM medium was treated with cascade dilution of the test compounds at a concentration in a range of 1 μM to 0.01 nM at a rate of 1/10. Subsequently, incubation was performed thereon for three days. MTS test was performed to measure cell viability, and the 50% growth inhibition (GI50) value of the cell line was calculated using GraphPad Prism software.

T1 sequence (P35968 20-1356): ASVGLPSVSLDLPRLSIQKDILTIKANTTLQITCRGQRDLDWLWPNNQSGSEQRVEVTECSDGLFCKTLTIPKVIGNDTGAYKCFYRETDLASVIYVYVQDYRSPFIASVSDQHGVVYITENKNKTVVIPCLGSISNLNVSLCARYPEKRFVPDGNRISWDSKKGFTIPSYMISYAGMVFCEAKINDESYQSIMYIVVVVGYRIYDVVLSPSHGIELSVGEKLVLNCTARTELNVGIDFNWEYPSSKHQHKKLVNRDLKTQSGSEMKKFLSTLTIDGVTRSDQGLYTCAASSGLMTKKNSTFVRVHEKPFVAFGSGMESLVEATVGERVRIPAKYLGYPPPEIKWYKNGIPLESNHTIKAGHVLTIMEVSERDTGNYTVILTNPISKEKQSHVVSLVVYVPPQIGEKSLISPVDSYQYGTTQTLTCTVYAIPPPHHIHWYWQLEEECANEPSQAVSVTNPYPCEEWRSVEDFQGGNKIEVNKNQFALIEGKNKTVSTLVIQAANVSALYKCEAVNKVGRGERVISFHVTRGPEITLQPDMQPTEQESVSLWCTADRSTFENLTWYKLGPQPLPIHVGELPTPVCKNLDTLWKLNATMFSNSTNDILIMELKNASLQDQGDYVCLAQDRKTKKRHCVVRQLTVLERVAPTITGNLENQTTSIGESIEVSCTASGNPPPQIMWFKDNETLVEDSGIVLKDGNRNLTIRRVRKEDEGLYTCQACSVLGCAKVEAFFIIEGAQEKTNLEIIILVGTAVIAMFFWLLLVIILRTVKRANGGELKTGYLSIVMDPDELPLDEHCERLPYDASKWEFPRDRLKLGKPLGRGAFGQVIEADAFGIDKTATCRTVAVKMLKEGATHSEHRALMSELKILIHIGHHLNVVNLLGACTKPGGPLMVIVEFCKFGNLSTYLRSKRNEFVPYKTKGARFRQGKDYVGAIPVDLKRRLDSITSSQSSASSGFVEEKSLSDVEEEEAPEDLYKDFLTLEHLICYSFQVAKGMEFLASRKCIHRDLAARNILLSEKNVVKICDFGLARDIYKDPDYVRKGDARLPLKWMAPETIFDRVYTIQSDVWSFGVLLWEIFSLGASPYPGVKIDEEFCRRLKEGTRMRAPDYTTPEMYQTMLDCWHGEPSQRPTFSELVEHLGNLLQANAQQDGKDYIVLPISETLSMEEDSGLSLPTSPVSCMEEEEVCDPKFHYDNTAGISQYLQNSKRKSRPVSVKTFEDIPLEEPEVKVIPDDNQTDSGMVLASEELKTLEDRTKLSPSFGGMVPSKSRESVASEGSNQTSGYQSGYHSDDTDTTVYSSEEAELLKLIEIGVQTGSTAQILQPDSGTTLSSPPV
T4 sequence (P49760 whole entry): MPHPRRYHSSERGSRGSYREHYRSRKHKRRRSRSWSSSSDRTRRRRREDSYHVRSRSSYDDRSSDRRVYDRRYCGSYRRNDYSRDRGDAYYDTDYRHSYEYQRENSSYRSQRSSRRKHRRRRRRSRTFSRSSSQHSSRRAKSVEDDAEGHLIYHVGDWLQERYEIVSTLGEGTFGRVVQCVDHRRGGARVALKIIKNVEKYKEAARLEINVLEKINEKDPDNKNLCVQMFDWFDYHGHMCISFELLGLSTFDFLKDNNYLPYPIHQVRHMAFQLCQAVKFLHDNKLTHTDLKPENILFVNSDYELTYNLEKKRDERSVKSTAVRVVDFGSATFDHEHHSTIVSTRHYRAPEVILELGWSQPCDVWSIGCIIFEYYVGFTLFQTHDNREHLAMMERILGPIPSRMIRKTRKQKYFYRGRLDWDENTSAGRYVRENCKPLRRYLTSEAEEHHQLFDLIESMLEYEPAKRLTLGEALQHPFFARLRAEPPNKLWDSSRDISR

As for `OCCN1CCN(c2cc(Nc3ncc(Cl)c(-c4c[nH]c5cc(F)ccc45)n3)cc(C3CC3)c2)CC1` [Example 1, 2-(4-(3-((5-chloro-4-(6-fluoro-1H-indole-3-yl)pyrimidine-2-yl)amino)-5-cyclopropylphenyl)piperazine-1-yl)ethane-1-ol], the inhibition at 0.1 µM on VEGFR2 (KDR) kinase turned out to be 71%; on AXL kinase, 52%; on NUAK1 (ARK5) kinase, 84%; at CLK2 kinase, 99%. Moreover, halving of growth in the test with RS4-11 cell line (GI50) required 147 nM.
In the case of `Cc1ccc2c(-c3nc(Nc4cc(C5CC5)cc(N5CCN(CCO)CC5)c4)ncc3Cl)c[nH]c2c1` [Example 2, 2-(4-(3-((5-chloro-4-(6-methyl-1H-indole-3-yl)pyrimidine-2-yl)amino)-5-cyclopropylphenyl)piperazine-1-yl)ethane-1-ol], the inhibition at 0.1 µM on VEGFR2 (KDR) kinase is 46%; on AXL kinase, 56%; on NUAK1 (ARK5) kinase it was 71%; at CLK2 kinase, 91%.
On to `Cc1ccc2c(-c3nc(Nc4cc(C5CC5)cc(N5CCC(N(C)C)CC5)c4)ncc3Cl)c[nH]c2c1` [Example 6, 5-chloro-N-(3-cyclopropyl-5-(4-(dimethylamino)piperidine-1-yl)phenyl)-4-(6-methyl-1H-indole-3-yl)pyrimidine-2-amine], for which the inhibition at 0.1 µM on VEGFR2 (KDR) kinase came out at 62%; on AXL kinase, 49%; on NUAK1 (ARK5) kinase, 57%; at CLK2 kinase it was 66%.
As for `COc1ccc2c(-c3nc(Nc4cc(C5CC5)cc(N5CCN(CCO)CC5)c4)ncc3Cl)c[nH]c2c1` [Example 7, 2-(4-(3-((5-chloro-4-(6-methoxy-1H-indole-3-yl)pyrimidine-2-yl)amino)-5-cyclopropylphenyl)piperazine-1-yl)ethane-1-ol], it took 33 nM to inhibit growth with RS4-11 cell line by half (GI50).
On to `Cc1ccc2c(-c3nc(Nc4cc(C5CC5)cc(N5CCC(N(C)C)C5)c4)ncc3Cl)c[nH]c2c1` (centres unmarked) [Example 16, 5-chloro-N-(3-cyclopropyl-5-(3-(dimethylamino)pyrrolidine-1-yl)phenyl)-4-(6-methyl-1H-indole-3-yl)pyrimidine-2-amine], for which the inhibition at 0.1 µM amounted to 56% on VEGFR2 (KDR) kinase, 27% at AXL kinase, 67% on NUAK1 (ARK5) kinase and 77% at CLK2 kinase.
The corresponding values for `Cc1ccc2c(-c3nc(Nc4cc(C5CC5)cc(N5CCN(C(C)(C)CO)CC5)c4)ncc3Cl)c[nH]c2c1` [Example 17, 2-(4-(3-((5-chloro-4-(6-methyl-1H-indole-3-yl)pyrimidine-2-yl)amino)-5-cyclopropylphenyl)piperazine-1-yl)-2-methylpropane-1-ol] are 67%, 66%, 72% and 93%.
`CN(C)C1CCN(c2cccc(Nc3ncc(Cl)c(-c4c[nH]c5ccccc45)n3)c2)C1` (centres unmarked) [Example 30, 5-chloro-N-(3-(3-(dimethylamino)pyrrolidine-1-yl)phenyl)-4-(1H-indole-3-yl)pyrimidine-2-amine] had a GI50 in the test on MV4-11 cell line of 0.8 nM.
Take `CC(C)(CO)N1CCN(Cc2cc(Nc3ncc(Cl)c(-c4c[nH]c5ccccc45)n3)cc(C3CC3)c2)CC1` [Example 38, 2-(4-(3-((5-chloro-4-(1H-indole-3-yl)pyrimidine-2-yl)amino)-5-cyclopropylbenzyl)piperazine-1-yl)-2-methylpropane-1-ol]: the inhibition at 0.1 µM amounted to 99% on VEGFR2 (KDR) kinase, 51% at AXL kinase, 63% on NUAK1 (ARK5) kinase and 97% at CLK2 kinase.
As for `Cc1ccc2c(-c3nc(Nc4cc(CN5CCN(C(C)(C)CO)CC5)cc(C5CC5)c4)ncc3Cl)c[nH]c2c1` [Example 41, 2-(4-(3-((5-chloro-4-(6-methyl-1H-indole-3-yl)pyrimidine-2-yl)amino)-5-cyclopropylbenzyl)piperazine-1-yl)-2-methylpropane-1-ol], the inhibition at 0.1 µM on VEGFR2 (KDR) kinase is 63%; on AXL kinase it was 50%.
`COc1cc(Nc2ncc(Cl)c(-c3c[nH]c4ccccc34)n2)cc(C(=O)N2CCN(CCO)CC2)c1` [Example 50, (3-((5-chloro-4-(1H-indole-3-yl)pyrimidine-2-yl)amino)-5-methoxyphenyl)(4-(2-hydroxyethyl)piperazine-1-yl)methanone] returned a GI50 with MV4-11 cell line of 1.2 nM.
The same measure, in the same setting: to `CCc1cc(Nc2ncc(Cl)c(-c3c[nH]c4cc(C)ccc34)n2)cc(OCCN2CCC(O)CC2)c1` [Example 52] belongs 0.8 nM; to `Cc1ccc2c(-c3nc(Nc4cc(O[C@@H]5CCN(CCO)C5)cc(C5CC5)c4)ncc3Cl)c[nH]c2c1` [Example 53, (R)-2-(3-(3-((5-chloro-4-(6-methyl-1H-indole-3-yl)pyrimidine-2-yl)amino)-5-cyclopropylphenoxy)pyrrolidine-1-yl)ethane-1-ol], 1.1 nM.

(Values after US10519141B2, “Pyrimidine compound and pharmaceutical use thereof” (HANMI PHARM. CO., LTD., priority 2017, dated 2019).)
